Laboratory results published in patent US20220000117A1, “METHOD FOR CONTROLLING DISEASES IN SMALL GRAIN CEREALS, SEED OF SMALL GRAIN CEREALS, AND METHOD FOR SUPPRESSING LODGING DAMAGE IN SMALL GRAIN CEREALS” (KUMIAI CHEMICAL INDUSTRY CO., LTD., priority 2019, published 2022).

Columns and labels:
powdery mildew = test: Test Example 9: control test of wheat powdery mildew, cup in greenhouse, inoculated, Norin No. 61 (Tables 10 to 14); format: in vivo, Blumeria graminis; design: key to Degree of Disease Occurrence: Σ(index×leaves)/(4×leaves investigated)×100; 0 = no disease, 100 = max
Experimental: (§1) Degree of Disease Occurrence=Σ(Index×Number of Leaves of Index)/(4×Number of Investigated Leaves)×100 (1)
Seed of wheat (variety: Norin No. 61) was used, and 100 ml of suspension waters each containing the compound shown in Table 10 at an amount shown in […] (synthesis was performed in accordance with a known method, a solution dissolved in DMSO or formulated 10% wettable powder was used) were prepared. The seed having a mass of 1 kg of wheat was mixed into the suspension water with a chemical treated amount shown in Table 10, and air-dried, and then, 5 seeds were sown in a plastic cup having a diameter of 6 cm containing river sand and managed in a greenhouse. In Comparative Examples, 20 ml of the suspension water of an active ingredient, which had been adjusted to have a concentration shown in Table 10, was sprayed in a frame of 45 cm×45 cm in which a pot of wheat seedlings was placed (corresponding to 1000 L/ha) 14 days after seeding. On day 14 after seeding, conidiospores of powdery mildew were sifted over leaves of wheat seedlings and inoculated onto the leaves (after the sprayed liquid was dried in the case of Comparative Examples), a lesion area ratio of powdery mildew in a first leaf was investigated 21 days after seeding according to the criteria in Table 1, and the degree of disease occurrence was calculated by the above calculation formula (1).

septoria leaf blotch = test: Test Example 10: control test of septoria leaf blotch of wheat, cup in greenhouse, inoculated, variety ARKEOS (Tables 15 to 19); format: in vivo, Septoria tritici
Experimental: as §1
Seed of wheat (variety: ARKEOS) was used, and 100 ml of suspension waters each containing the compound shown in Table 15 at an amount shown in Table 15 (synthesis was performed in accordance with a known method, a liquid dissolved in a small amount of DMSO or formulated 10% wettable powder was used) were prepared. Seed having a mass of 1 kg was mixed into the suspension water with a rate shown in Examples of Table 15, and air-dried, and then, 5 seeds were sown in a plastic cup having a diameter of 6 cm containing mixed soil of river sand and horticultural soil and managed in a greenhouse. In Comparative Examples, 20 ml of suspension water of an active ingredient, which had been adjusted to have a concentration shown in Table 15 to 19, was sprayed in a frame of 45 cm×45 cm in which a pot of wheat seedlings was placed (corresponding to 1000 L/ha) 14 days after seeding. On day 14 after seeding, a spore suspension in which conidiospores of septoria leaf blotch are suspended was sprayed and inoculated on leaves of wheat seedlings (after the sprayed liquid was dried in the case of Comparative Examples), a lesion area ratio of septoria leaf blotch in a second leaf was investigated approximately 35 days after seeding according to the criteria in Table 1, and the degree of disease occurrence was calculated by the above calculation formula (1).

[1] = Table 11 run (different day), Foliage Treatment, spray 10 ppm (10 g/ha)
[2] = Table 11 run (different day), Foliage Treatment, spray 50 ppm (50 g/ha)
[3] = Table 11 run (different day), Seed Treatment 0.1 g/Seed 1 kg (10 g/ha)
[4] = Table 11 run (different day), Seed Treatment 0.5 g/Seed 1 kg (50 g/ha)
[5] = Table 13 run (different day), Foliage Treatment, spray 10 ppm (10 g/ha)
[6] = Table 13 run (different day), Seed Treatment 0.1 g/Seed 1 kg (10 g/ha)
[7] = Table 17, Foliage Treatment, spray 50 ppm suspension water (corresponding to 50 g/ha) 14 days after seeding, untreated 50.0
[8] = Table 17, Foliage Treatment, spray 50 ppm suspension water (corresponding to 50 g/ha) 14 days after seeding, untreated 100.0
[9] = Table 17, Foliage Treatment, spray 100 ppm suspension water (corresponding to 100 g/ha) 14 days after seeding, untreated 50.0
[10] = Table 17, Foliage Treatment, spray 100 ppm suspension water (corresponding to 100 g/ha) 14 days after seeding, untreated 100.0
[11] = Table 17, Seed Treatment, 0.5 g/Seed 1 kg (corresponding to 50 g/ha), untreated 50.0
[12] = Table 17, Seed Treatment, 0.5 g/Seed 1 kg (corresponding to 50 g/ha), untreated 100.0
[13] = Table 17, Seed Treatment, 1 g/Seed 1 kg (corresponding to 100 g/ha), untreated 50.0
[14] = Table 17, Seed Treatment, 1 g/Seed 1 kg (corresponding to 100 g/ha), untreated 100.0
[15] = Table 13 run (different day), Foliage Treatment, spray 50 ppm (50 g/ha)
[16] = Table 13 run (different day), Seed Treatment 0.5 g/Seed 1 kg (50 g/ha)
[17] = Table 17, Foliage Treatment, spray 10 ppm suspension water (corresponding to 10 g/ha) 14 days after seeding, untreated 50.0
[18] = Table 17, Foliage Treatment, spray 10 ppm suspension water (corresponding to 10 g/ha) 14 days after seeding, untreated 100.0
[19] = Table 17, Seed Treatment, 0.1 g/Seed 1 kg (corresponding to 10 g/ha), untreated 50.0
[20] = Table 17, Seed Treatment, 0.1 g/Seed 1 kg (corresponding to 10 g/ha), untreated 100.0
[21] = Table 18, Foliage Treatment, spray 50 ppm (50 g/ha)
[22] = Table 18, Seed Treatment 0.5 g/Seed 1 kg (50 g/ha)
[23] = Table 10 run, Foliage Treatment, spray 10 ppm (10 g/ha) day 14, first leaf, 21 days after seeding
[24] = Table 10 run, Foliage Treatment, spray 50 ppm (50 g/ha) day 14, first leaf, 21 days after seeding
[25] = Table 10 run, Foliage Treatment, spray 100 ppm (100 g/ha) day 14, first leaf, 21 days after seeding
[26] = Table 10 run, Seed Treatment 0.1 g/Seed 1 kg (10 g/ha), first leaf, 21 days after seeding
[27] = Table 10 run, Seed Treatment 0.5 g/Seed 1 kg (50 g/ha), first leaf, 21 days after seeding
[28] = Table 10 run, Seed Treatment 1 g/Seed 1 kg (100 g/ha), first leaf, 21 days after seeding

SMILES | Degree of Disease Occurrence (powdery mildew; [2]) | Disease Leaf Rate (%) (powdery mildew; [2]) | Degree of Disease Occurrence (powdery mildew; [4]) | Disease Leaf Rate (%) (powdery mildew; [4]) | Degree of Disease Occurrence (powdery mildew; [5]) | Disease Leaf Rate (%) (powdery mildew; [5]) | Degree of Disease Occurrence (powdery mildew; [6]) | Disease Leaf Rate (%) (powdery mildew; [6]) | Degree of Disease Occurrence (septoria leaf blotch; [7]) | Disease Leaf Rate (%) (septoria leaf blotch; [8]) | Degree of Disease Occurrence (septoria leaf blotch; [9]) | Disease Leaf Rate (%) (septoria leaf blotch; [10]) | Degree of Disease Occurrence (septoria leaf blotch; [11]) | Disease Leaf Rate (%) (septoria leaf blotch; [12]) | Degree of Disease Occurrence (septoria leaf blotch; [13]) | Disease Leaf Rate (%) (septoria leaf blotch; [14]) | Degree of Disease Occurrence (powdery mildew; [15]) | Disease Leaf Rate (%) (powdery mildew; [15]) | Degree of Disease Occurrence (powdery mildew; [16]) | Disease Leaf Rate (%) (powdery mildew; [16]) | further results
CCOC(=O)c1snc(Cl)c1Cl [Compound (8)] | 94.8 | 100 | 75.1 | 96.4 | 72.8 | 100.0 | 49.7 | 95.8 | 31.7 | 100.0 | 26.7 | 93.3 | 10.3 | 36.3 | 8.8 | 35.0 | – | – | – | – | Degree of Disease Occurrence (powdery mildew; [1]): 96.9; Disease Leaf Rate (%) (powdery mildew; [1]): 100%; Degree of Disease Occurrence (powdery mildew; [3]): 80.2; Disease Leaf Rate (%) (powdery mildew; [3]): 100%; Degree of Disease Occurrence (septoria leaf blotch; Table 17, Foliage Treatment, spray 5 ppm suspension water (corresponding to 5 g/ha) 14 days after seeding, untreated 50.0): 38.3; Disease Leaf Rate (%) (septoria leaf blotch; Table 17, Foliage Treatment, spray 5 ppm suspension water (corresponding to 5 g/ha) 14 days after seeding, untreated 100.0): 100.0%; Degree of Disease Occurrence (septoria leaf blotch; Table 17, Seed Treatment, 0.05 g/Seed 1 kg (corresponding to 5 g/ha), untreated 50.0): 23.8; Disease Leaf Rate (%) (septoria leaf blotch; Table 17, Seed Treatment, 0.05 g/Seed 1 kg (corresponding to 5 g/ha), untreated 100.0): 90.0%
COC(=O)c1snc(Cl)c1Cl [Compound (7)] | 94.8 | 100 | 78.8 | 100 | – | – | – | – | – | – | 50.0 | 93.3 | – | – | 19.4 | 77.5 | 77.1 | 100.0 | 61.3 | 100.0 | Degree of Disease Occurrence (septoria leaf blotch; [17]): 41.7; Disease Leaf Rate (%) (septoria leaf blotch; [18]): 100.0%; Degree of Disease Occurrence (septoria leaf blotch; [19]): 22.5; Disease Leaf Rate (%) (septoria leaf blotch; [20]): 68.8%
COC(=N)c1snc(Cl)c1Cl [Compound (11)] | 97.9 | 100 | 79.7 | 100 | 72.6 | 98.4 | 50.1 | 95.0 | 35.0 | 100.0 | 41.7 | 100.0 | 18.8 | 63.8 | 26.5 | 67.5 | 67.6 | 99.6 | 40.8 | 100.0 | Degree of Disease Occurrence (septoria leaf blotch; [17]): 31.7; Disease Leaf Rate (%) (septoria leaf blotch; [18]): 93.3%; Degree of Disease Occurrence (septoria leaf blotch; [19]): 22.5; Disease Leaf Rate (%) (septoria leaf blotch; [20]): 80.0%
N=C(N)c1snc(Cl)c1Cl [Compound (14)] | – | – | – | – | – | – | – | – | – | – | – | – | – | – | – | – | – | – | – | – | Degree of Disease Occurrence (powdery mildew; Table 14, Foliage Treatment, spray 50 ppm suspension water (corresponding to 50 g/ha) 14 days after seeding, untreated 70.0): 18.3; Disease Leaf Rate (%) (powdery mildew; Table 14, Foliage Treatment, spray 50 ppm suspension water (corresponding to 50 g/ha) 14 days after seeding, untreated 100.0): 61.1%; Degree of Disease Occurrence (powdery mildew; Table 14, Foliage Treatment, spray 100 ppm suspension water (corresponding to 100 g/ha) 14 days after seeding, untreated 70.0): 14.4; Disease Leaf Rate (%) (powdery mildew; Table 14, Foliage Treatment, spray 100 ppm suspension water (corresponding to 100 g/ha) 14 days after seeding, untreated 100.0): 44.4%; Degree of Disease Occurrence (powdery mildew; Table 14, Seed Treatment, 0.5 g/Seed 1 kg (corresponding to 50 g/ha), first leaf, 21 days after seeding, untreated 70.0): 7.8; Disease Leaf Rate (%) (powdery mildew; Table 14, Seed Treatment, 0.5 g/Seed 1 kg (corresponding to 50 g/ha), first leaf, 21 days after seeding, untreated 100.0): 25.0%; Degree of Disease Occurrence (powdery mildew; Table 14, Seed Treatment, 1 g/Seed 1 kg (corresponding to 100 g/ha), first leaf, 21 days after seeding, untreated 70.0): 11.3; Disease Leaf Rate (%) (powdery mildew; Table 14, Seed Treatment, 1 g/Seed 1 kg (corresponding to 100 g/ha), first leaf, 21 days after seeding, untreated 100.0): 40.0%; Degree of Disease Occurrence (septoria leaf blotch; [21]): 48.3; Disease Leaf Rate (%) (septoria leaf blotch; [21]): 100.0%; Degree of Disease Occurrence (septoria leaf blotch; [22]): 42.5; Disease Leaf Rate (%) (septoria leaf blotch; [22]): 90.0%
N#Cc1snc(Cl)c1Cl [Compound (2)] | – | – | – | – | – | – | – | – | – | – | – | – | – | – | – | – | – | – | – | – | Degree of Disease Occurrence (powdery mildew; [23]): 59.4; Disease Leaf Rate (%) (powdery mildew; [23]): 100.0%; Degree of Disease Occurrence (powdery mildew; [24]): 56.3; Disease Leaf Rate (%) (powdery mildew; [24]): 100.0%; Degree of Disease Occurrence (powdery mildew; [25]): 47.9; Disease Leaf Rate (%) (powdery mildew; [25]): 95.8%; Degree of Disease Occurrence (powdery mildew; [26]): 45.9; Disease Leaf Rate (%) (powdery mildew; [26]): 100.0%; Degree of Disease Occurrence (powdery mildew; [27]): 41.0; Disease Leaf Rate (%) (powdery mildew; [27]): 93.8%; Degree of Disease Occurrence (powdery mildew; [28]): 28.9; Disease Leaf Rate (%) (powdery mildew; [28]): 87.5%; Degree of Disease Occurrence (septoria leaf blotch; Table 16, Foliage Treatment, spray 100 ppm suspension water (corresponding to 100 g/ha) 14 days after seeding, untreated 57.1): 51.0; Disease Leaf Rate (%) (septoria leaf blotch; Table 16, Foliage Treatment, spray 100 ppm suspension water (corresponding to 100 g/ha) 14 days after seeding, untreated 93.3): 100.0%; Degree of Disease Occurrence (septoria leaf blotch; Table 16, Seed Treatment, 1 g/Seed 1 kg (corresponding to 100 g/ha), untreated 57.1): 37.5; Disease Leaf Rate (%) (septoria leaf blotch; Table 16, Seed Treatment, 1 g/Seed 1 kg (corresponding to 100 g/ha), untreated 93.3): 81.3%
